Laboratory results: PubChem BioAssay AID2060622 (Molecular Pharmacology Branch, DTP, NCI, 2025)

Test system: 242566-281-R-J2-PDC complex spheroid viability
Assay: Anticancer human tumor 242566-281-R-J2-PDC patient-derived pancreatic carcinoma cell line growth inhibition [CLK]
Conditions: for IC50: curve of first compound; for viability, T/C: stronger effect = lower value; active = viability on the fitted dose curve at most 10% of control; inactive = the rest
Procedure, shortened: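 Multi-cell-type spheroids combined patient-derived tumor cells with HUVEC endothelial cells and human mesenchymal stem cells. Paired agents were dosed in half-log steps down from about clinical Cmax, or from 10 microM where Cmax was unknown.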

[1] = second compound 0.0316 µM, first compound 0.00949 µM
[2] = second compound 0.0316 µM, first compound 0.03 µM
[3] = second compound 0.0316 µM, first compound 0.0949 µM
[4] = second compound 0.0316 µM, first compound 0.3 µM
[5] = second compound 0.1 µM, first compound 0.00949 µM
[6] = second compound 0.1 µM, first compound 0.03 µM
[7] = second compound 0.1 µM, first compound 0.0949 µM
[8] = second compound 0.1 µM, first compound 0.3 µM
[9] = second compound 0.316 µM, first compound 0.00949 µM
[10] = second compound 0.316 µM, first compound 0.03 µM
[11] = second compound 0.316 µM, first compound 0.0949 µM
[12] = second compound 0.316 µM, first compound 0.3 µM
[13] = second compound 1 µM, first compound 0.00949 µM
[14] = second compound 1 µM, first compound 0.03 µM
[15] = second compound 1 µM, first compound 0.0949 µM
[16] = second compound 1 µM, first compound 0.3 µM
[17] = second compound 3.16 µM, first compound 0.00949 µM
[18] = second compound 3.16 µM, first compound 0.03 µM
[19] = second compound 3.16 µM, first compound 0.0949 µM
[20] = second compound 3.16 µM, first compound 0.3 µM
[21] = second compound 10 µM, first compound 0.00949 µM
[22] = second compound 10 µM, first compound 0.03 µM
[23] = second compound 10 µM, first compound 0.0949 µM
[24] = second compound 10 µM, first compound 0.3 µM
[25] = second compound 0.0316 µM, first compound 0.0316 µM
[26] = second compound 0.0316 µM, first compound 0.1 µM
[27] = second compound 0.0316 µM, first compound 0.316 µM
[28] = second compound 0.0316 µM, first compound 1 µM
[29] = second compound 0.0316 µM, first compound 3.16 µM
[30] = second compound 0.0316 µM, first compound 10 µM
[31] = second compound 0.1 µM, first compound 0.0316 µM
[32] = second compound 0.1 µM, first compound 0.1 µM
[33] = second compound 0.1 µM, first compound 0.316 µM
[34] = second compound 0.1 µM, first compound 1 µM
[35] = second compound 0.1 µM, first compound 3.16 µM
[36] = second compound 0.1 µM, first compound 10 µM
[37] = second compound 0.316 µM, first compound 0.0316 µM
[38] = second compound 0.316 µM, first compound 0.1 µM
[39] = second compound 0.316 µM, first compound 0.316 µM
[40] = second compound 0.316 µM, first compound 1 µM
[41] = second compound 0.316 µM, first compound 3.16 µM
[42] = second compound 0.316 µM, first compound 10 µM
[43] = second compound 1 µM, first compound 0.0316 µM
[44] = second compound 1 µM, first compound 0.1 µM
[45] = second compound 1 µM, first compound 0.316 µM
[46] = second compound 1 µM, first compound 1 µM
[47] = second compound 1 µM, first compound 3.16 µM
[48] = second compound 1 µM, first compound 10 µM
[49] = second compound 3.16 µM, first compound 0.0316 µM
[50] = second compound 3.16 µM, first compound 0.1 µM
[51] = second compound 3.16 µM, first compound 0.316 µM
[52] = second compound 3.16 µM, first compound 1 µM
[53] = second compound 3.16 µM, first compound 3.16 µM
[54] = second compound 3.16 µM, first compound 10 µM
[55] = second compound 10 µM, first compound 0.0316 µM
[56] = second compound 10 µM, first compound 0.1 µM
[57] = second compound 10 µM, first compound 0.316 µM
[58] = second compound 10 µM, first compound 1 µM
[59] = second compound 10 µM, first compound 3.16 µM
[60] = second compound 10 µM, first compound 10 µM
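Note: spheroids exposed to compounds for 7 days before readout.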
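Throughout, for viability, T/C: 100% = DMSO vehicle control wells.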

C=CC(=O)Nc1cc(Nc2nccc(-c3cn(C)c4ccccc34)n2)c(OC)cc1N(C)CCN(C)C + CN1CCN(c2cc(C(=O)Nc3cc4cc(-c5cnn(C)c5)ccc4cn3)ccn2)CC1
< 0.949 nM: IC50 (second compound 0.316 µM) | IC50 (second compound 1 µM) | IC50 (second compound 3.16 µM) | IC50 (second compound 10 µM)
> 300 nM: IC50 (second compound 0.0316 µM) | IC50 (second compound 0.1 µM)
inactive: viability, T/C (second compound 0.0316 µM, first compound 0.000949 µM) 92.7% | viability, T/C (second compound 0.0316 µM, first compound 0.003 µM) 103% | viability, T/C [1] 91.8% | viability, T/C [2] 96.7% | viability, T/C [3] 95.1% | viability, T/C [4] 71.8% | viability, T/C (second compound 0.1 µM, first compound 0.000949 µM) 102% | viability, T/C (second compound 0.1 µM, first compound 0.003 µM) 85.8% | viability, T/C [5] 84.2% | viability, T/C [6] 73.6% | viability, T/C [7] 79.8% | viability, T/C [8] 62.9% | viability, T/C (second compound 0.316 µM, first compound 0.000949 µM) 32.1% | viability, T/C (second compound 0.316 µM, first compound 0.003 µM) 33.7% | viability, T/C [9] 27.7% | viability, T/C [10] 23% | viability, T/C [11] 25.2% | viability, T/C [12] 20.1%
active: viability, T/C (second compound 1 µM, first compound 0.000949 µM) 4.67% | viability, T/C (second compound 1 µM, first compound 0.003 µM) 4.02% | viability, T/C [13] 4.33% | viability, T/C [14] 3.28% | viability, T/C [15] 2.72% | viability, T/C [16] 2.12% | viability, T/C (second compound 3.16 µM, first compound 0.000949 µM) 6.9% | viability, T/C (second compound 3.16 µM, first compound 0.003 µM) 6.41% | viability, T/C [17] 6.23% | viability, T/C [18] 6.27% | viability, T/C [19] 5.66% | viability, T/C [20] 4.09% | viability, T/C (second compound 10 µM, first compound 0.000949 µM) 2.35% | viability, T/C (second compound 10 µM, first compound 0.003 µM) 1.98% | viability, T/C [21] 1.72% | viability, T/C [22] 2.34% | viability, T/C [23] 2.25% | viability, T/C [24] 1.2%

CC1(C)CCC(CN2CCN(c3ccc(C(=O)NS(=O)(=O)c4ccc(NCC5CCOCC5)c([N+](=O)[O-])c4)c(Oc4cnc5[nH]ccc5c4)c3)CC2)=C(c2ccc(Cl)cc2)C1 + CN1CCN(c2cc(C(=O)Nc3cc4cc(-c5cnn(C)c5)ccc4cn3)ccn2)CC1
6080 nM: IC50 (second compound 0.1 µM)
6540 nM: IC50 (second compound 0.0316 µM)
< 31.6 nM: IC50 (second compound 0.316 µM) | IC50 (second compound 1 µM) | IC50 (second compound 3.16 µM) | IC50 (second compound 10 µM)
active: viability, T/C [43] 5.27% | viability, T/C [44] 5.79% | viability, T/C [45] 6.15% | viability, T/C [46] 6.22% | viability, T/C [47] 5.21% | viability, T/C [48] 1.17% | viability, T/C [49] 7.94% | viability, T/C [50] 7.2% | viability, T/C [51] 8.15% | viability, T/C [52] 7.96% | viability, T/C [53] 6.33% | viability, T/C [54] 1.38% | viability, T/C [55] 2.16% | viability, T/C [56] 2.09% | viability, T/C [57] 1.92% | viability, T/C [58] 2.08% | viability, T/C [59] 1.25% | viability, T/C [60] 0.24%
inactive: viability, T/C [25] 109% | viability, T/C [26] 109% | viability, T/C [27] 101% | viability, T/C [28] 112% | viability, T/C [29] 109% | viability, T/C [30] 16.1% | viability, T/C [31] 100% | viability, T/C [32] 92.8% | viability, T/C [33] 93.2% | viability, T/C [34] 96.9% | viability, T/C [35] 107% | viability, T/C [36] 13.4% | viability, T/C [37] 38.1% | viability, T/C [38] 34% | viability, T/C [39] 31.9% | viability, T/C [40] 38.9% | viability, T/C [41] 36.2% | viability, T/C [42] 5.57%

NC(=O)C(=Cn1cnc(-c2cc(C(F)(F)F)cc(C(F)(F)F)c2)n1)c1cncnc1 + CN1CCN(c2cc(C(=O)Nc3cc4cc(-c5cnn(C)c5)ccc4cn3)ccn2)CC1
465 nM: IC50 (second compound 0.1 µM)
active: viability, T/C (second compound 0.1 µM, first compound 3 µM) 7.32% | viability, T/C [11] 6.44% | viability, T/C [12] 3.56% | viability, T/C (second compound 0.316 µM, first compound 0.949 µM) 3.41% | viability, T/C (second compound 0.316 µM, first compound 3 µM) 4.67% | viability, T/C [13] 3.11% | viability, T/C [14] 4.63% | viability, T/C [15] 6.18% | viability, T/C [16] 6.13% | viability, T/C (second compound 1 µM, first compound 0.949 µM) 6.09% | viability, T/C (second compound 1 µM, first compound 3 µM) 5.22% | viability, T/C [17] 5.89% | viability, T/C [18] 6.16% | viability, T/C [19] 8.1% | viability, T/C [20] 7.76% | viability, T/C (second compound 3.16 µM, first compound 0.949 µM) 7.74% | viability, T/C (second compound 3.16 µM, first compound 3 µM) 6.2% | viability, T/C [21] 1.11% | viability, T/C [22] 1.56% | viability, T/C [23] 0.89% | viability, T/C [24] 1.02% | viability, T/C (second compound 10 µM, first compound 0.949 µM) 0.68% | viability, T/C (second compound 10 µM, first compound 3 µM) 0.27%
inactive: viability, T/C [1] 99.3% | viability, T/C [2] 106% | viability, T/C [3] 97% | viability, T/C [4] 84.1% | viability, T/C (second compound 0.0316 µM, first compound 0.949 µM) 50.9% | viability, T/C (second compound 0.0316 µM, first compound 3 µM) 19.7% | viability, T/C [5] 92.5% | viability, T/C [6] 83.6% | viability, T/C [7] 84.4% | viability, T/C [8] 60% | viability, T/C (second compound 0.1 µM, first compound 0.949 µM) 31.7% | viability, T/C [9] 29.2% | viability, T/C [10] 16.8%
978 nM: IC50 (second compound 0.0316 µM)
< 9.49 nM: IC50 (second compound 0.316 µM) | IC50 (second compound 1 µM) | IC50 (second compound 3.16 µM) | IC50 (second compound 10 µM)

Nc1ccccc1NC(=O)c1ccc(CNC(=O)OCc2cccnc2)cc1 + CN1CCN(c2cc(C(=O)Nc3cc4cc(-c5cnn(C)c5)ccc4cn3)ccn2)CC1
2690 nM: IC50 (second compound 0.0316 µM)
< 31.6 nM: IC50 (second compound 0.316 µM) | IC50 (second compound 1 µM) | IC50 (second compound 3.16 µM) | IC50 (second compound 10 µM)
active: viability, T/C [36] 5.31% | viability, T/C [41] 6.85% | viability, T/C [42] 0.46% | viability, T/C [43] 4.47% | viability, T/C [44] 4.78% | viability, T/C [45] 4.55% | viability, T/C [46] 3.08% | viability, T/C [47] 2.04% | viability, T/C [48] 1.1% | viability, T/C [49] 9.27% | viability, T/C [50] 7.2% | viability, T/C [51] 7.84% | viability, T/C [52] 6.26% | viability, T/C [53] 5.4% | viability, T/C [54] 3.16% | viability, T/C [55] 2.19% | viability, T/C [56] 1.81% | viability, T/C [57] 1.73% | viability, T/C [58] 2.14% | viability, T/C [59] 1.57% | viability, T/C [60] 0.86%
inactive: viability, T/C [25] 95.9% | viability, T/C [26] 96.1% | viability, T/C [27] 84.2% | viability, T/C [28] 83.5% | viability, T/C [29] 44.2% | viability, T/C [30] 10.9% | viability, T/C [31] 92.5% | viability, T/C [32] 82.8% | viability, T/C [33] 70.5% | viability, T/C [34] 65.8% | viability, T/C [35] 31.6% | viability, T/C [37] 28.3% | viability, T/C [38] 29.4% | viability, T/C [39] 28.4% | viability, T/C [40] 20.9%
1540 nM: IC50 (second compound 0.1 µM)
